Test results published in patent US6554620B1, “Aqueous disinfectant/sterilizing agent for foods” (priority 2001, dated 2003).
Several values for one entry are separate records, joined by “and”; a condition that tells them apart may be missing. Equal entries are not always repeated. Where two headings read alike, the source gives them in different places.

Legend:
[1] = test system: Escherihia coli (IFO 3972); test: Efficacy comparison (MIC method) of hinokitiol as single substance and the invented agent; assay type: cell-based, Escherichia coli; set-up: key to growth: growth of bacteria is shown as “+”; no growth is shown as “−”; details: 7 days at 30° C.
Protocol: (§1) Escherihia coli (IFO 3972) and Aspergillus niger (IFO 4414) were used utilizing the minimum inhibitory method (MIC) to conduct a comparison testing the efficacy of hinokitiol as a single substance and the invented aqueous disinfectant.
(§2) Type II of the invented agent as previously described, having a hinokitiol concentration of 0.1 weight % (1000 ppm) was diluted 10 times, 20 times, 50 times, and 100 times and standard agar plate for E-coli and potato dextrose agar plate for aspergillus niger were prepared for each concentration. With hinokitiol as single substance, for 1000 g of water, 1 g of hinokitiol was used to make 0.1% solution, and this was diluted 10 times, 20 times, 50 times, and 100 times and standard agar plates and potato dextrose plates were prepared at each concentration. E-coli and aspergillus niger were implanted to the plate and cultivated for 7 days at 30° C. and the growth of the bacteria was observed. The result are shown in Table 4 below, where growth of bacteria is shown as “+”, and no growth is shown as “−”.

[2] = test system: Aspergillus niger (IFO 4414); test: as above; assay type: cell-based; set-up: key: growth of bacteria is shown as “+”; no growth is shown as “−”; details: 7 days at 30° C.
Protocol: as §1, §2

[3] = Water solubility of hinokitiol; assay type: physicochemical
From the text: It has been said that the water solubility of hinokitiol as a single substance, in weight is maximum 0.2 weight %. However, in our experiment, we could not make it more than 0.1 weight %.
With this invention, by mixing hinokitiol with the extract of aloe vera, green tea, low striped bamboo and dokudami, it is possible to make a 1.0 weight % water solution without difficulty. In addition to the above mixture, we have succeeded in making 10 weight % of concentration of hinokitiol in water basis by adding glycerin fatty acid ester as surface active agent and cara saponine, which is an emulsifier. Alcohol (ethanol) is not required as an ingredient to achieve the above noted high concentration of hinokitiol.
It is known fact that with the addition of ethanol, it is possible to make 5 weight % water solution but for some foods, adding alcohol is not suitable and can change the taste of foods. Therefore, this invention of non-alcoholic water soluble disinfectant solution has particular significance.

[4] = cited from earlier work
[5] = test system: Salmonella typhimurium TA100; test: Reverse mutation screening assay; assay type: cell-based
Protocol: (§3) The test was conducted at Biosafety Research Center for Foods, Drugs and Pesticides, in Shizuoka, Japan.

[6] = test system: Salmonella typhimurium TA98; test: Reverse mutation screening assay; assay type: cell-based
Protocol: as §3

[7] = 10 times dilution of 0.1 weight % hinokitiol solution
[8] = 20 times dilution of 0.1 weight % hinokitiol solution
[9] = 50 times dilution of 0.1 weight % hinokitiol solution
[10] = 100 times dilution of 0.1 weight % hinokitiol solution
[11] = positive control requiring S9 mix, 1.0 μg/plate, Table 15
[12] = positive control requiring S9 mix, 1.0 μg/plate, Table 16
[13] = positive control requiring S9 mix, 0.5 μg/plate, Table 15
[14] = positive control requiring S9 mix, 0.5 μg/plate, Table 16
[15] = positive control not requiring S9 mix, 0.01 μg/plate, Table 15
[16] = positive control not requiring S9 mix, 0.01 μg/plate, Table 16
[17] = positive control not requiring S9 mix, 0.1 μg/plate, Table 15
[18] = positive control not requiring S9 mix, 0.1 μg/plate, Table 16

SMILES: CC(C)c1cccc(=O)c(O)c1 [Hinokitiol, β-Thujaplicin]
- growth [1, 7]: −
- growth [1, 8]: +
- growth [1, 9]: +
- growth [1, 10]: +
- hinokitiol concentration of the highest dilution that is effective (MIC method) ([1]; E-coli and Aspergillus niger): 0.01%
- growth [2, 7]: −
- growth [2, 8]: +
- growth [2, 9]: +
- growth [2, 10]: +
- concentration of hinokitiol in water basis obtainable ([3]; extracts plus glycerin fatty acid ester and cara saponine, no alcohol): 10 weight %
- water solubility of hinokitiol as a single substance, in our experiment ([3]; in water): ≤ 0.1 weight %
- hinokitiol water solution obtainable ([3]; mixed with extract of aloe vera, green tea, low striped bamboo and dokudami): 1.0 weight %
- water solubility of hinokitiol as a single substance, maximum as has been said ([4]; in water): ≤ 0.2 weight %
- hinokitiol water solution obtainable ([4]; with the addition of ethanol, known fact): 5 weight %

SMILES: Nc1ccc2cc3ccccc3cc2c1 [2-AA]
- No. of revertants, mean in parentheses [5, 11]: 686 colonies/plate
- No. of revertants, single plates [5, 11]: 683 colonies/plate and 688 colonies/plate
- No. of revertants, mean in parentheses [5, 12]: 649 colonies/plate
- No. of revertants, single plates [5, 12]: 647 colonies/plate and 650 colonies/plate
- No. of revertants, mean in parentheses [6, 13]: 200 colonies/plate
- No. of revertants, single plates [6, 13]: 203 colonies/plate and 196 colonies/plate
- No. of revertants, mean in parentheses [6, 14]: 208 colonies/plate
- No. of revertants, single plates [6, 14]: 197 colonies/plate and 219 colonies/plate

SMILES: NC(=O)/C(=C\c1ccc([N+](=O)[O-])o1)c1ccco1 [AF-2]
- No. of revertants, mean in parentheses [5, 15]: 370 colonies/plate
- No. of revertants, single plates [5, 15]: 377 colonies/plate and 363 colonies/plate
- No. of revertants, mean in parentheses [5, 16]: 410 colonies/plate
- No. of revertants, single plates [5, 16]: 408 colonies/plate and 412 colonies/plate
- No. of revertants, mean in parentheses [6, 17]: 733 colonies/plate
- No. of revertants, single plates [6, 17]: 747 colonies/plate and 718 colonies/plate
- No. of revertants, mean in parentheses [6, 18]: 692 colonies/plate
- No. of revertants, single plates [6, 18]: 698 colonies/plate and 686 colonies/plate
